Source: PubChem BioAssay AID1996
≈ marks a conversion by molar mass, not a printed value.

Conditions: buffer; pH 7.4; 200.0 µM

| solubility kinetic [mg/mL] | SMILES |
| --- | --- |
| > 0.0457 | NC(=O)C1CCCN1S(=O)(=O)c1ccc2ccccc2c1 (stereo not given) |
| < 0.0007 | Cc1ccccc1C(=O)N1c2ccccc2OCC1C(C)(C)C (stereo not given) |
| > 0.0442 | Cc1onc(-c2c(F)cccc2Cl)c1C(=O)NC1CC1 |
| > 0.0356 | CNC(=O)c1cccc2nc3ccccc3nc12 |
| 0.0065 (≈ 22.5 µM) | Cc1cnc(NC(=O)CC2OC(=O)c3ccccc32)s1 (stereo not given) |
| 0.0198 (≈ 61.4 µM) | O=C(c1ccc(Br)s1)N1CCc2ccccc2C1 |
| 0.0053 (≈ 13.1 µM) | O=C(COC(=O)/C=C/c1ccc(OC(F)F)cc1)Nc1ccc2[nH]c(=O)[nH]c2c1 |
| 0.0095 (≈ 39.4 µM) | O=C(NC(=O)c1ccccc1)Nc1ccccn1 |
| 0.0012 (≈ 3.71 µM) | O=C1OCc2nc3cc4c(cc3c(-c3ccc(F)cc3)c21)OCO4 |
| 0.0354 (≈ 102 µM) | COc1ccc2nc(S(=O)Cc3ncc(C)c(OC)c3C)[nH]c2c1 (stereo not given) |
| > 0.0365 | O=C(NCc1ccccc1)c1nccnc1CO |
| > 0.043 | Cc1ccsc1C(=O)N[C@@H](C)c1nnc2ccccn12 |
| < 0.0002 | CC(Nc1nc(-c2ccccc2O)nc2ccccc12)c1ccccc1 (stereo not given) |
| > 0.0533 | O=C(NC(=S)N1CCN(C/C=C/c2ccccc2)CC1)c1ccco1 |
| 0.0016 (≈ 4.7 µM) | Cc1ccc(CNC(=O)C(C)C2Sc3ccccc3NC2=O)cc1 (stereo not given) |
| < 0.0006 | COC(=O)c1cc(C)ccc1OCc1ccc([N+](=O)[O-])cc1 |
| 0.0121 (≈ 43.8 µM) | COc1ccccc1CNc1nc(C)c(C(C)=O)s1 |
| > 0.0503 | CCC(C)N(C)C1CCN(C(=S)Nc2ccc(OC)cc2)CC1 (stereo not given) |
| > 0.0463 | COC(=O)c1ccc(S(=O)(=O)NCc2ccccc2)n1C |
| 0.0038 (≈ 11.3 µM) | Cc1ccc(C(CC(=O)N2CCCCC2)c2ccccc2)c(O)c1C (stereo not given) |

| solubility kinetic [mg/mL] | SMILES |
| --- | --- |
| 0.0378 (≈ 138 µM) | CN1CCN(S(=O)(=O)c2ccc(Cl)cc2)CC1 |
| > 0.0368 | CCn1c(SCC#N)nc2ccccc2c1=O |
| 0.055 (≈ 147 µM) | CCOP(=O)(OCC)/C(=N/OC(=O)c1cccc([N+](=O)[O-])c1)C(N)=O |
| > 0.052 | COC(=O)c1cc(CSC(=N)N)ccc1OCCC(C)C.Cl |
| 0.0043 (≈ 15.2 µM) | CC1CCC(NC(=O)c2cc3ccccc3cc2O)CC1 (stereo not given) |
| 0.0489 (≈ 148 µM) | COCCSc1ccccc1C(=O)Nc1ccccc1C(C)C |
| 0.0205 (≈ 62.4 µM) | COc1ccc(C(=O)NC(C)CCc2ccccc2)cc1[N+](=O)[O-] (stereo not given) |
| > 0.0329 | COc1ccc2[nH]c(=O)c(C(=O)O)cc2c1 |
| > 0.04 | NC(=O)C1CCN(C(=O)CCc2ccsc2)CC1 |
| > 0.0508 | CC(=O)NCC(=O)NNC1CC(=O)N(c2cccc(Cl)c2)C1=O (stereo not given) |
| 0.0354 (≈ 136 µM) | CCN(CC)c1ccc(NC(=O)C2CCCC2)cc1 |
| 0.0362 (≈ 147 µM) | NC(=O)C12CCCC(Br)(CCC1)C2 |
| 0.0063 (≈ 19.1 µM) | Cc1ccccc1NC(=O)c1ccc2c(c1)CCN2S(C)(=O)=O |
| > 0.0494 | CC1(C)Cc2cccc(OCC(=O)NCc3ccccc3F)c2O1 |
| > 0.0579 | O=C(CN1C(=O)c2cccc([N+](=O)[O-])c2C1=O)NNC(=O)c1ccc(F)cc1 |
| > 0.0458 | CCC(Oc1ccccc1F)C(=O)NCCCn1ccnc1 (stereo not given) |
| > 0.0437 | Cc1nnc(SCC(=O)Nc2ccccc2)n(N)c1=O |
| 0.0119 (≈ 36.8 µM) | CCOC(=O)C1CCCN(Cc2ccc(-c3ccccc3)cc2)C1 (stereo not given) |
| 0.0258 (≈ 135 µM) | C=CCCOc1ccccc1C(N)=O |
| 0.0016 (≈ 4.73 µM) | COc1ccccc1NC(=O)c1ccc(-c2ccccc2[N+](=O)[O-])o1 |

| solubility kinetic [mg/mL] | SMILES |
| --- | --- |
| > 0.0368 | COc1cccc2c(=O)c3c([nH]c12)OC(C)(C)C3 |
| 0.0484 (≈ 144 µM) | CCOc1cc(OCC)cc(C(=O)NCCCN2CCOCC2)c1 |
| 0.0099 (≈ 28.9 µM) | O=C(CSc1nc2ccccc2c2c1CCCC2)N1CCOCC1 |
| > 0.0396 | Cc1cc(Sc2ncnc(N)c2[N+](=O)[O-])ncn1 |
| > 0.035 | CC(C)Oc1ccc(C2CC(=O)NC2=O)cc1 (stereo not given) |
| 0.0054 (≈ 15.7 µM) | CC(=O)c1ccc(NC(=O)CCNC(=O)c2ccc(Cl)cc2)cc1 |
| > 0.0494 | O=C(COC(=O)C1=COCCO1)Nc1ccccc1OC(F)F |
| 0.0079 (≈ 17.7 µM) | COc1ccc(NC(=O)CCOc2cc(C)ccc2C)cc1S(=O)(=O)N1CCCCC1 |
| > 0.0468 | Nc1cc(=O)[nH]c(SCC(=O)Nc2cccnc2Cl)n1 |
| > 0.0537 | CC(=O)N1CCN(C(=O)CNC(=O)c2ccc(Br)o2)CC1 |
| > 0.0494 | O=C(NC1CCCC1)C1CCN(C(=O)NCc2ccccc2)CC1 |
| 0.0018 (≈ 6.09 µM) | CCCCN(C)Cc1cc(=O)oc2ccc3ccccc3c12 |
| 0.0244 (≈ 78.6 µM) | CCn1c(C)c(C)c2cc(C(=O)NCCc3ccco3)ccc21 |
| 0.0013 (≈ 4.54 µM) | O=C(Nc1cccc(O)c1)c1cc(-c2cccs2)on1 |
| 0.0038 (≈ 9.86 µM) | COc1ccc(NC(=O)c2cc(-c3ccccn3)nc3ccccc23)c(OC)c1 |
| 0.032 (≈ 118 µM) | Brc1ccccc1OCCN1CCCC1 |
| > 0.0425 | COc1cc(C(=O)OCC(C)=O)c([N+](=O)[O-])cc1OC |
| 0.0028 (≈ 6.94 µM) | O=C(COC(=O)[C@@H]1CCCN1C(=O)c1cccs1)Nc1cccc([N+](=O)[O-])c1 |
| > 0.0443 | CC(C)CCc1noc(CN(C)CCC2CCOCC2)n1 |

| SMILES | solubility kinetic [mg/mL] |
| --- | --- |
| CCCn1c(C(=O)c2ccc(OC)cc2)nc2ccccc21 | 0.0017 (≈ 5.78 µM) |
